SMILES strings stand for the structures.

The target of the test is M-phase inducer phosphatase 2 (Homo sapiens) (UniProt P30305). The experiment in a line: Cdc25B inhibition under reducing thiol conditions, late-stage follow-up, Cdc25B inhibitor project, biochemical, beta-mercaptoethanol present, catalytic domain, IC50 (AID 670). The note with it: recombinant Cdc25B phosphatase activity, with beta-mercaptoethanol.
M-phase inducer phosphatase 2 (Homo sapiens), sequence (P30305 whole entry, looked up, the tested form may be a part): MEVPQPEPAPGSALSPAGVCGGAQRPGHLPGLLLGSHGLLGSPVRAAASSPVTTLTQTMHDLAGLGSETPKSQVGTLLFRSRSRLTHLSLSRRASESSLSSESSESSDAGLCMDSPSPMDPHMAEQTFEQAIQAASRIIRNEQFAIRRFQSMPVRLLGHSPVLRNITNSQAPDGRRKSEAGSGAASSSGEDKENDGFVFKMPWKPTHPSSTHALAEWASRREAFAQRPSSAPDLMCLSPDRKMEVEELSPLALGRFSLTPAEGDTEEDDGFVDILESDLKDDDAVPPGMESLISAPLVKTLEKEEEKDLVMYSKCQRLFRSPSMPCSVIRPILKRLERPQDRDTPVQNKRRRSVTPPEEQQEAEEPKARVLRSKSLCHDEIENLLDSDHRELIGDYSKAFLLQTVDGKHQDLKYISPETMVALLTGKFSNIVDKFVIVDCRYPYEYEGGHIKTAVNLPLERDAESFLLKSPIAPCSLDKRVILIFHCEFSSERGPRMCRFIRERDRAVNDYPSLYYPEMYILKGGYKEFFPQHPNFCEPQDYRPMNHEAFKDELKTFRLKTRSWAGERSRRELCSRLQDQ

One may read the IC50 as the concentration needed to halve the response being measured. With `O=C(OC1CCCCC1)c1ccc2c(c1)C1C=CCC1C(C(=O)O)N2` (configuration not stated), the IC50 is 3.8 µM.

With `COc1cccc2c1NC(C(=O)O)C1CC=CC21` (configuration not stated), the IC50 is 8.11 µM.

(Values after PubChem BioAssay AID670 (University of Pittsburgh Molecular Library Screening Center, 2007).)
